For one assay, the target named is CFTR (Homo sapiens, UniProt P13569). Kind of assay: standard Ussing Chamber Assay for CFTR potentiator activity. It is filed as cell-based.
The next assay concerns the target T1, F508del in NIH 3T3 cells (Homo sapiens, UniProt P13569, DEL508-508).
T1 construct: expressed in transfected cells
The assay is described as follows: 3T3 assay: membrane potential optical assay for F508del correction. The following applies: F508del NIH 3T3 cells; for Emax: NIH3T3, efficacy compared to lumacaftor in combination with acutely added 300 nM Ivacaftor, read-out: 3T3 Max Activity (%). It is filed as cell-based, mouse. The source says:
Membrane Potential Optical Methods for Assaying F508del Modulation Properties of Compounds The assay utilizes fluorescent voltage sensing dyes to measure changes in membrane potential using a fluorescent plate reader (e.g., FLIPR III, Molecular Devices, Inc.) as a readout for increase in functional F508del in NIH 3T3 cells. The driving force for the response is the creation of a chloride ion gradient in conjunction with channel activation by a single liquid addition step after the cells have previously been treated with compounds and subsequently loaded with a voltage sensing dye. 2. Identification of Corrector Compounds To identify correctors of F508del, a single-addition HTS assay format was developed. This HTS assay utilizes fluorescent voltage sensing dyes to measure changes in membrane potential on the FLIPR III as a measurement for increase in gating (conductance) of F508del in F508del NIH 3T3 cells. The F508del NIH 3T3 cell cultures were incubated with the corrector compounds at a range of concentrations for 18-24 hours at 37° C., and subsequently loaded with a redistribution dye. The driving force for the response is a Cl^− ion gradient in conjunction with channel activation with forskolin in a single liquid addition step using a fluorescent plate reader such as FLIPR III. […] Solutions […] Chloride-free bath solution: Chloride salts in Bath Solution #1 (above) are substituted with gluconate salts. 4. Cell Culture NIH3T3 mouse fibroblasts stably expressing F508del are used for optical measurements of membrane potential. The cells are maintained at 37° C. in 5% CO2 and 90% humidity in Dulbecco's modified Eagle's medium supplemented with 2 mM glutamine, 10% fetal bovine serum, 1×NEAA, b-ME, 1×pen/strep, and 25 mM HEPES in 175 cm^2 culture flasks. For all optical assays, the cells were seeded at ˜20,000/well in 384-well Matrigel-coated plates. For the correction assays, the cells are cultured at 37° C. with and without compounds for 16-24 hours.

Assay [1] concerns the target CFTR-mediated chloride transport in human intestinal epithelial enteroid cells (Homo sapiens, UniProt P13569). Kind of assay: Enteroid assay: membrane potential dye assay (Enteroid Assay A or B). It is filed as cell-based. The following applies: for Ent. Max Activity (%): chloride transport as percentage of triple combination control (% Activity). As for the experimental part: Base medium (ADF+++) consisted of Advanced DMEM/Ham's F12, 2 mM Glutamax, 10 mM HEPES, […] penicillin/streptomycin.
Intestinal enteroid maintenance medium (IEMM) consisted of ADF+++, 1×B27 supplement, 1×N2 supplement, 1.25 mM N-acetyl cysteine, 10 mM Nicotinamide, 50 ng/mL hEGF, 10 nM Gastrin, 1 μg/mL hR-spondin-1, 100 ng/mL hNoggin, TGF-b type 1 inhibitor A-83-01, 100 μg/mL Primocin, 10 μM P38 MAPK inhibitor SB202190.
Bath 1 Buffer consisted of 1 mM MgCl2, 160 mM NaCl, 4.5 mM KCl, 10 mM HEPES, 10 mM Glucose, 2 mM CaCl2).
Chloride Free Buffer consisted of 1 mM Magnesium Gluconate, 2 mM Calcium Gluconate, 4.5 mM Potassium Gluconate, 160 mM Sodium Gluconate, 10 mM HEPES, 10 mM Glucose.
Bath1 Dye Solution consisted of Bath 1 Buffer, 0.04% Pluronic F127, 20 μM Methyl Oxonol, 30 μM CaCCinh-A01, 30 μM Chicago Sky Blue.
Chloride Free Dye Solution consisted of Chloride Free Buffer, 0.04% Pluronic F127, 20 μM Methyl Oxonol, 30 μM CaCCinh-A01, 30 μM Chicago Sky Blue.
Chloride Free Dye Stimulation Solution consisted of Chloride Free Dye Solution, 10 μM forskolin, 100 μM IBMX, and 300 nM Compound III.
Human intestinal epithelial enteroid cells were obtained from the Hubrecht Institute for Developmental Biology and Stem Cell Research, Utrecht, The Netherlands and expanded in T-Flasks as previously described (Dekkers J F, Wiegerinck C L, de Jonge H R, Bronsveld I, Janssens H M, de Winter-de Groot K M, Brandsma A M, de Jong N W M, Bijvelds M J C, Scholte B J, Nieuwenhuis E E S, van den Brink S, Clevers H, van der Ent C K, Middendorp S and M Beekman J M. A functional CFTR assay using primary cystic fibrosis intestinal organoids. Nat Med. 2013 July; 19(7):939-45).
3. Enteroid Cell Harvesting and Seeding […]
Enteroid cells were incubated with test compound in IEMM for 18-24 hours at 37° C., 95% humidity and 5% CO2. […] Chloride transport was initiated by addition of Chloride Free Dye Stimulation Solution and the fluorescence signal was read for 15 min. […] Chloride transport was then expressed as a percentage of the chloride transport following treatment with 3 μM (S)—N-((6-aminopyridin-2-yl)sulfonyl)-6-(3-fluoro-5-isobutoxyphenyl)-2-(2,2,4-trimethylpyrrolidin-1-yl)nicotinamide, 3 μM (R)-1-(2,2-difluorobenzo[d][1,3]dioxol-5-yl)-N-(1-(2,3-dihydroxypropyl)-6-fluoro-2-(1-hydroxy-2-methylpropan-2-yl)-1H-indol-5-yl)cyclopropanecarboxamide and 300 nM acute N-[2,4-bis(1,1-dimethylethyl)-5-hydroxyphenyl]-1,4-dihydro-4-oxoquinoline-3-carboxamide triple combination control (% Activity). […]
Enteroid cells were incubated with test compound in IEMM for 18-24 hours at 37° C., 95% humidity and 5% CO2. […] Chloride transport was initiated by addition of Chloride Free Dye Stimulation Solution and the fluorescence signal was read for 15 min. […]

Structures are written as SMILES.

The text below walks through data of patent publication US20230373974A1, “MODULATORS OF CYSTIC FIBROSIS TRANSMEMBRANE CONDUCTANCE REGULATOR” (VERTEX PHARMACEUTICALS INCORPORATED, priority 2020, published 2023).

The EC50 is the midpoint of the concentration-response curve.

Sequence of CFTR-mediated chloride transport in human intestinal epithelial enteroid cells (P13569 whole entry): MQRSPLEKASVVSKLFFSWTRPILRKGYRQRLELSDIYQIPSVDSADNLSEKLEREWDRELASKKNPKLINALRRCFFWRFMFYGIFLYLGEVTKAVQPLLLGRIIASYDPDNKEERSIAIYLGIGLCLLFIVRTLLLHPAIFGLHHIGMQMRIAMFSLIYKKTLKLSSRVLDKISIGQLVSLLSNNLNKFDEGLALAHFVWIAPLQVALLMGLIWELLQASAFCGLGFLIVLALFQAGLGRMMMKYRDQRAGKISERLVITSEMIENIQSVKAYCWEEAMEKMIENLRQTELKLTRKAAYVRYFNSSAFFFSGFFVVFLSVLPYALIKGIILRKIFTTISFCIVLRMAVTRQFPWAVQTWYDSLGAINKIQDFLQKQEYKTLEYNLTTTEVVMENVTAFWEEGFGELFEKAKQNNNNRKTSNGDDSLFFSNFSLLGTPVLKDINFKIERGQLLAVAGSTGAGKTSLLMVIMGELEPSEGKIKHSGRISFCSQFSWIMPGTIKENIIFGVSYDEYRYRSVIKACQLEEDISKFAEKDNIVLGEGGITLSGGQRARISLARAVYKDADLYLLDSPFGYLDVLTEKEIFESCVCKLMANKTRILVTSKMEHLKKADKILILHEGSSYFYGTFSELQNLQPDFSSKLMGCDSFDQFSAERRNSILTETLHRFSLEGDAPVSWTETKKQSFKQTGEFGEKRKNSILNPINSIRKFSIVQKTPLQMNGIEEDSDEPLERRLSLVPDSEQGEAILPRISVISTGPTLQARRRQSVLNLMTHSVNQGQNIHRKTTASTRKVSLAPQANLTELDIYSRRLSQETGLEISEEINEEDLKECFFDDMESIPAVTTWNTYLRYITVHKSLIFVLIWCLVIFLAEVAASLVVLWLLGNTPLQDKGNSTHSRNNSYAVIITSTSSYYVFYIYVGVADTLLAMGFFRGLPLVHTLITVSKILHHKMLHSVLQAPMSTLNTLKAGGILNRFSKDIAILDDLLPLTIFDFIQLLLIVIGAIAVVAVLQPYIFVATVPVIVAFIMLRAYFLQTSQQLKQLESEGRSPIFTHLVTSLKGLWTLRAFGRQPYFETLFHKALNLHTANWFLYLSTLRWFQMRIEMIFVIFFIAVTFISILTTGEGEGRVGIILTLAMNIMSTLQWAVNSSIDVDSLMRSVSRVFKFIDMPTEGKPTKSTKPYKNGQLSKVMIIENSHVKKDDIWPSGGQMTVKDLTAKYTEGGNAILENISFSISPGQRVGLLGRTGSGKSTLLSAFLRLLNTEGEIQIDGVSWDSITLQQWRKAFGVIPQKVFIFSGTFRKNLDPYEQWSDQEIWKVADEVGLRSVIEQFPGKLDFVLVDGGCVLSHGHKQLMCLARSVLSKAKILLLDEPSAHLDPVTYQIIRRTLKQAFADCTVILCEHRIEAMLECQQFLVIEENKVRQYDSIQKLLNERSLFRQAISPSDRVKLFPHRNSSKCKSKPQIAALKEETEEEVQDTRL
T1 sequence (P13569 with tags, fused parts or gaps DEL508-508): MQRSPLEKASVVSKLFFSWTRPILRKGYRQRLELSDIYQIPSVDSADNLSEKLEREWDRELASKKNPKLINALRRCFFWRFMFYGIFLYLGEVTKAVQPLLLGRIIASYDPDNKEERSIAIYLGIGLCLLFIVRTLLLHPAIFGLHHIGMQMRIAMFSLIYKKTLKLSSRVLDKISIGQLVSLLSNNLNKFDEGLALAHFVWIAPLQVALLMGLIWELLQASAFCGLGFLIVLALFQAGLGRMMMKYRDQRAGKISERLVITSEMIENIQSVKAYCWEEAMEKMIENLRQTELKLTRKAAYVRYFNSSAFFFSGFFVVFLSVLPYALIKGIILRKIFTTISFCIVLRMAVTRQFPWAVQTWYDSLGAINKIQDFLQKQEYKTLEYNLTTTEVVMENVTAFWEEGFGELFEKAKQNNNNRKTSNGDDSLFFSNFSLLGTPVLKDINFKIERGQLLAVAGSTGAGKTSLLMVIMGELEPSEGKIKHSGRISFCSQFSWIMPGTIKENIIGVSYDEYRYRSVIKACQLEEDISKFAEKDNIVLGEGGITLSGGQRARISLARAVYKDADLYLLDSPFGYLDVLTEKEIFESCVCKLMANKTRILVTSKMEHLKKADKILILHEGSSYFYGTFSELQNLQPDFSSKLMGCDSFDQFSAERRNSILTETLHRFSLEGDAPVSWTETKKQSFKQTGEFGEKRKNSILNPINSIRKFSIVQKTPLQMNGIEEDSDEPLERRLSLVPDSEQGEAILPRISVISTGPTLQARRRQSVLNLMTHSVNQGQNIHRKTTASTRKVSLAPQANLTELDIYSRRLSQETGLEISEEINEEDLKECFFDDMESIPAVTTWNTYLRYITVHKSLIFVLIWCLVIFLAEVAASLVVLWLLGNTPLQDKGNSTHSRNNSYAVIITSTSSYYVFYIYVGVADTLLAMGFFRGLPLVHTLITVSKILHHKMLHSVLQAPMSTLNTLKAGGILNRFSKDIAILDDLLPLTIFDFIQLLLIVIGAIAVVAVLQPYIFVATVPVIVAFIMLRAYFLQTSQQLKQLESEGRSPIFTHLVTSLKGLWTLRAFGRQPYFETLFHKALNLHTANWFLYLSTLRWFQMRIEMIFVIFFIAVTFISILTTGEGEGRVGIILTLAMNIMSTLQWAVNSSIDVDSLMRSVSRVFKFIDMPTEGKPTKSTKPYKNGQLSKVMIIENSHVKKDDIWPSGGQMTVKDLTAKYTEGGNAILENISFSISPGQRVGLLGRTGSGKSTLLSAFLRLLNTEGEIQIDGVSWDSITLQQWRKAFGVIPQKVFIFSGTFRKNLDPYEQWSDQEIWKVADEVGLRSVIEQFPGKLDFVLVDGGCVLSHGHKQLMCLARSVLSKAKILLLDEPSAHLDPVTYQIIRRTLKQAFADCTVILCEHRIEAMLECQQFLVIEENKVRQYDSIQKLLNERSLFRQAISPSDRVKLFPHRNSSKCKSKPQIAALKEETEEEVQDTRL
Sequence of CFTR (P13569 whole entry): as the sequence (P13569 whole entry) above

Turning to `C[C@@H]1CCCCC[C@](O)(C(F)(F)F)C2=NN=C(O2)c2nc(c(C(F)(F)F)cc2N)O1` [(6R,12R)-17-Amino-12-methyl-6,15-bis(trifluoromethyl)-13,19-dioxa-3,4,18-triazatricyclo[12.3.1.12,5]nonadeca-1(18),2,4,14,16-pentaen-6-ol], on CFTR, the “CFTR modulating activity (CFTR potentiator activity)” value is “confirmed”.
As for `Cc1cc(C)c(-n2nc(NS(=O)(=O)c3ccccc3)c3ccc(C(C)(C)C)nc32)c(C)c1` [Compound 33, N-[6-tert-butyl-1-(2,4,6-trimethylphenyl)pyrazolo[3,4-b]pyridin-3-yl]benzenesulfonamide], the EC50 on F508del in NIH 3T3 cells (incubated with compound 18-24 hours at 37° C., forskolin activation) was < 1 µM. Also, the “Ent. Max Activity (%)” value in assay [1] was “+ (+ is <300%)”.
Turning to `Cc1ccccc1-c1nc(NS(=O)(=O)c2cnn(C)c2)cc2oc3ccccc3c12` [Compound 79, 1-Methyl-N-[1-(o-tolyl)benzofuro[3,2-c]pyridin-3-yl]pyrazole-4-sulfonamide], in assay [1], the “Ent. Max Activity (%)” value is “++ (++ is 30-60%)”. The EC50 in assay [1] (enteroid cells, 18-24 hours incubation, acute 10 μM forskolin and 300 nM ivacaftor, read-out: Ent. EC50) was 3 to 30 µM.
`Cc1ccccc1-c1cc2oc3ccccc3c2c(NS(=O)(=O)c2cnn(C)c2)n1` [Compound 80]: the “Ent. Max Activity (%)” value in assay [1] is given as “+ (+ is <300%)”.
Consider `Cc1cc(C)c(-c2nnc(NS(=O)(=O)c3ccccc3)c3ccc(C(C)(C)C)nc23)c(C)c1` [Compound 90], for which, at F508del in NIH 3T3 cells, the Emax was < 30%.
Regarding `Cc1cc(C)cc(-n2c(NS(=O)(=O)c3ccccc3)nc3cc(C(C)(C)C)ccc32)c1` [Compound 91], on F508del in NIH 3T3 cells, the Emax was < 30%.
Still for that read-out and setting: with `Cc1cc(C)cc(-n2c(NS(=O)(=O)c3ccccc3)nc3ccc(C(C)(C)C)cc32)c1` [Compound 92] the figure was < 30%; with `CC(C)(C)c1ccc2nc(NS(=O)(=O)c3ccccc3)[nH]c2c1` [Compound 93], < 30%; with `Cc1cc(C)c(Oc2cc(C(C)(C)C)cc3nnc(NS(=O)(=O)c4cccc(N)c4)n23)c(C)c1` [Compound 94], < 30%.
Consider `Cc1cc(C)c(Oc2cc(C(C)(C)C)cc3nnc(NS(=O)(=O)c4ccccc4)n23)c(C)c1` [Compound 95], for which the Emax on F508del in NIH 3T3 cells was < 30%.
